Assays:
HepG2 cells = assay: HepG2 hepatoma cell-based hepatotoxicity assay (MTS); conditions: 72 h of incubation
Method: To investigate the safety of compounds 2RS,4RS-39c, 50a, and 56a, a HepG2 hepatoma cell-based hepatotoxicity assay was used. Compounds were tested at six concentrations (0.1–100 μM).
Hepatotoxicity and cytotoxicity were estimated according to previously described protocols[62] using the hepatoma HepG2 (ATCC HB-8065) and human embryonic kidney HEK-293 (ATCC CRL1573) cell lines, respectively. In brief, cells were seeded in 96-well plates at a density of 0.7 × 10^4 and cultured at 37 °C in an atmosphere containing 5% CO2. Next, the compounds were added and investigated in quadruplicate at concentrations ranging from 0.1 to 100 μM for 72 h. The antiproliferative drug DX was used as the reference. The CellTiter 96 AQueous nonradioactive cell proliferation assay (MTS) purchased from Promega (Madison, WI, USA) was used for the determination of cell viability. The absorbance at 492 nm was measured using an EnSpire microplate reader (PerkinElmer, Waltham, MA, USA).

mGAT2 = target: T1, mGAT2 (Mus musculus, UniProt P31651); assay: [3H]GABA uptake assay in HEK-293 cells stably expressing mGAT2; format: cell-based; conditions: [3H]GABA uptake; read-out: pIC50 ± SEM mGAT2 (converted)
T1 construct: expressed in transfected cells; host or cells: HEK-293
T1 sequence (P31651 1-614): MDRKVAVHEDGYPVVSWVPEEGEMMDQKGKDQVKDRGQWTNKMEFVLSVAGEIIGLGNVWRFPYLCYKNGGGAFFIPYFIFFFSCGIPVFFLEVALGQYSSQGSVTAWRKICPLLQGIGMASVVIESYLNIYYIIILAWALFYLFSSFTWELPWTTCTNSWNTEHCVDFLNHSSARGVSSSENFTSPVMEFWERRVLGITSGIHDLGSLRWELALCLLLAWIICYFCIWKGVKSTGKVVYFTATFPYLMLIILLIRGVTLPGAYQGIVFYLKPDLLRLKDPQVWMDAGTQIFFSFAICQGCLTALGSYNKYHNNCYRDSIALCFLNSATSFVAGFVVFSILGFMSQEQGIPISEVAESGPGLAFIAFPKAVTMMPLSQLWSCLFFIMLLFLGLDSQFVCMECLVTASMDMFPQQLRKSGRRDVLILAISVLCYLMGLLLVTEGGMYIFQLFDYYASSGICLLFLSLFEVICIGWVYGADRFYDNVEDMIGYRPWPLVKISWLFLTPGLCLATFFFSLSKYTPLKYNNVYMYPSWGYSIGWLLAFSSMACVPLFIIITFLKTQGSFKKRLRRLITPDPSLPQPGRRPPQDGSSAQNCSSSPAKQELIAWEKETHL

mGAT3 = target: T2, mGAT3 (Mus musculus, UniProt P31649); assay: [3H]GABA uptake assay in HEK-293 cells stably expressing mGAT3; format: cell-based; conditions: [3H]GABA uptake; read-out: pIC50 ± SEM mGAT3 (converted)
T2 construct: expressed in transfected cells; host or cells: HEK-293
T2 sequence (P31649 1-602): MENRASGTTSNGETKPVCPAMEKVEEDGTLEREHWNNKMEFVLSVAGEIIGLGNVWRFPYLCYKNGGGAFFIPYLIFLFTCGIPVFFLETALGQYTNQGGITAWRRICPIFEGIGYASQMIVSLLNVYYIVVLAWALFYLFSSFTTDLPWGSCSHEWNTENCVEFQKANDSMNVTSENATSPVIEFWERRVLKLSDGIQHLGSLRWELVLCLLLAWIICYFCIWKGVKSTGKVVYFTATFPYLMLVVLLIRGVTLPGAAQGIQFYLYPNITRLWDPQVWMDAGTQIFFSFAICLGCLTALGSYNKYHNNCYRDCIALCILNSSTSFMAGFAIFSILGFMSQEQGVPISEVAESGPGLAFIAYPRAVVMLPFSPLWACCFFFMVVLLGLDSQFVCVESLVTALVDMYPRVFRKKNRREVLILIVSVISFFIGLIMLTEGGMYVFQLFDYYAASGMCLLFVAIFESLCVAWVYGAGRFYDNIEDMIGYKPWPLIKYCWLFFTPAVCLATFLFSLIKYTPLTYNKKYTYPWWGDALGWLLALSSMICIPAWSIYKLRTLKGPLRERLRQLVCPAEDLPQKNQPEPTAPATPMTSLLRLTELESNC

mGAT1 = target: T3, mGAT1 (Mus musculus, UniProt P31648); assay: [3H]GABA uptake assay in HEK-293 cells stably expressing mGAT1; format: cell-based; conditions: for IC50: [3H]GABA uptake, read-out: pIC50 ± SEM mGAT1 (converted)
T3 construct: expressed in transfected cells; host or cells: HEK-293

STZ-treated mice = assay: diabetic STZ-induced peripheral neuropathy, heat hyperalgesia (hot plate test); format: in vivo, mouse; conditions: i.p.
Method: (§1) Before the in vivo tests, the test compounds were suspended in 1% Tween 80 (Baxter, Poland). The compounds were then administered intraperitoneally. […] The test compounds were administered only once daily on days 1 and 7 of oxaliplatin- or paclitaxel-induced neuropathy. In STZ-treated mice, test compounds were administered 21 days after STZ injection. Control mice used in oxaliplatin and paclitaxel NP models were injected with an appropriate amount of vehicle (0.9% saline). Oxaliplatin was purchased from Activate Scientific GmbH (Germany). Paclitaxel and STZ were purchased from Sigma-Aldrich (Poland).
Doses of both paclitaxel and STZ used for the induction of neuropathy were selected based on our previous research.[66],[67] To induce neuropathy, paclitaxel was used at a dose of 18 mg/kg. It was prepared by dissolving in ethanol (100% (v/v); Polskie Odczynniki Chemiczne, Gliwice, Poland) at 10% of the final desired volume and vortexed for 2 min. […] Blood glucose level was measured 1 day before (referred to as “day 0”) and repeatedly 1, 2, and 3 weeks after STZ injection using a blood glucose monitoring system (Accu-Chek Active, Roche, France). […]
Thermal (heat) nociceptive threshold was assessed in the hot plate test as previously described.[67] […] The time until the animal licked its hind paws or jumped was recorded by means of a stop-watch. […]

paclitaxel-treated mice = assay: paclitaxel-induced peripheral neuropathy, heat nociceptive threshold (hot plate test); format: in vivo, mouse; conditions: for effect on latency to pain reaction (heat), hot plate test: day of paclitaxel administration (paclitaxel-induced hypoalgesia); for effect on thermal nociceptive threshold, hot plate test: seven days after paclitaxel administration, i.p.
Method: as §1
Doses of both paclitaxel and STZ used for the induction of neuropathy were selected based on our previous research.[66],[67] To induce neuropathy, paclitaxel was used at a dose of 18 mg/kg. It was prepared by dissolving in ethanol (100% (v/v); Polskie Odczynniki Chemiczne, Gliwice, Poland) at 10% of the final desired volume and vortexed for 2 min. An equal volume of Cremophor EL (10% of the final volume) was then added, and the mixture was vortexed for the next 10 min. Prior to injection, ice-cold physiological saline (80% of the final volume) was added to make up a final volume and the solution was maintained on ice during dosing.[66] To induce type I diabetes, mice were intraperitoneally injected with STZ (a single injection of STZ, 200 mg/kg) dissolved in 0.1 N citrate buffer. Age-matched control mice received an equal volume of citrate buffer. Blood glucose level was measured 1 day before (referred to as “day 0”) and repeatedly 1, 2, and 3 weeks after STZ injection using a blood glucose monitoring system (Accu-Chek Active, Roche, France). Blood samples for measurement of glucose concentration were obtained from the tail vein of the mice. The animals were considered as diabetic when their blood glucose concentration exceeded 300 mg/dL,[68] and only these mice (diabetic mice) were used in subsequent pain tests.[67]
Thermal (heat) nociceptive threshold was assessed in the hot plate test as previously described.[67] First, baseline (predrug) latencies to pain reaction were established for each mouse. Then, the mice were treated intraperitoneally with either the test compound or vehicle. Sixty minutes later the animals were placed on the hot plate apparatus again (hot/cold plate, Bioseb, France). This apparatus has an electrically heated surface and is supplied with a temperature-controller that maintains the temperature at 55 °C. The time until the animal licked its hind paws or jumped was recorded by means of a stop-watch. In this assay a cutoff time was established (60 s) to avoid tissue damage, and the mice not responding within 60 s were removed from the apparatus and assigned a score of 60 s.

| IC50 (mGAT2) [µM] | IC50 (mGAT3) [µM] | remaining [3H]GABA uptake mGAT1 (mGAT1; in the presence of 100 μM inhibitor) | IC50 (mGAT1) [µM] | Structure (SMILES) | concentration with statistically significant (p < 0.0001) decrease in HepG2 cell viability (HepG2 cells; tested 0.1–100 μM) [µM] | effect on heat nociceptive threshold, hot plate test (STZ-treated mice) | effect on latency to pain reaction (heat), hot plate test (paclitaxel-treated mice; 30 mg/kg i.p.) | effect on thermal nociceptive threshold, hot plate test (paclitaxel-treated mice) | hepatotoxicity in HepG2 cells (HepG2 cells; concentrations up to 25 μM) | effect on latency to pain reaction (heat), hot plate test (paclitaxel-treated mice; 10 mg/kg i.p.) |
| --- | --- | --- | --- | --- | --- | --- | --- | --- | --- | --- |
| 20.4 | 6.61 | 100 μM: 52% |  | Cc1ccc(CNC(=O)[C@@H](C[C@@H](C)O)N(C)CCC=C2c3ccccc3CCc3ccccc32)cc1 (relative stereo) [Compound 2RS,4RS-39c, 2-((3-(10,11-Dihydro-5H-dibenzo[a,d][7]annulen-5-ylidene)propyl)(methyl)amino)-4-hydroxy-N-(4-methylbenzyl)pentanamide] | 25 |  |  |  |  |  |
| 3.72 | 8.51 |  | 20 | CN(CCON=C(c1ccccc1)c1ccccc1)C(CCN)C(=O)NCc1ccccc1Cl (stereo not drawn) [Compound 50a, 4-Amino-N-[(2-chlorophenyl)methyl]-2-[(2-{[(diphenylmethylidene)amino]oxy}ethyl)(methyl)amino]butanamide] |  | neither 50a nor 56a was effective | reduced latency to pain reaction | did not reveal the effect of paclitaxel and compounds 50a and 56a on the thermal nociceptive threshold |  |  |
| 27.5 | 22.9 |  | 21.4 | CN(CCC=C1c2ccccc2CCc2ccccc21)C(CO)C(=O)NCc1ccccc1 (stereo not drawn) [Compound 56a, N-Benzyl-2-((3-(10,11-dihydro-5H-dibenzo[a,d][7]annulen-5-ylidene)propyl)(methyl)amino)-3-hydroxypropanamide] |  | neither 50a nor 56a was effective | reduced latency to pain reaction | did not reveal the effect of paclitaxel and compounds 50a and 56a on the thermal nociceptive threshold | did not induce significant hepatotoxicity | reduced latency to pain reaction |
